From patent US20030008847A1, “Treatment of diabetes and related pathologies” (Medicure, Inc., priority 1999, published 2003)

What was measured:
[1] = system: rats induced with Type I diabetes; test: Type I diabetes in rats induced with streptozotocin; glucose and insulin levels; format: in vivo, Male Sprague-Dawley rats; settings: compared to diabetic group, Insulin 1 unit and 3 unit, P-5-P 25 mg/kg daily; for plasma glucose levels: FIG. 1; for plasma insulin levels: FIG. 2
Description: Male Sprague-Dawley (Charles River Laboratories, Montreal, Canada) rats weighing approximately 200 g are randomly separated into control and experimental groups. All experimental animals are given an intravenous injection of 0.1 M citrate buffered streptozotocin (pH 4.5) at a dosage of 65 mg/kg of body weight to induce diabetes mellitus. All control animals receive an intravenous injection of 0.1 M citrate buffer (pH 4.5) alone. One experimental group of rats also receives daily doses of pyridoxal-5′-phosphate (25 mg/kg body weight) (Aldrich Canada Ltd., Ontario, Canada). A second experimental group receives daily subcutanteous injections of Humulin® N (3 units per day) (insulin isophene, human biosynthetic; Eli Lilly and Co., Indianapolis, Ind.). A third experimental group receives both daily subcutaneous injections of Humulin® N (3 units per day) and a daily dose of pyridoxal-5′-phosphate (25 mg/kg body weight). […] […] All animals are fed rat chow and water ad libitum. Plasma glucose levels were done using the Infinity Glucose Reagent® (Sigma Diagnostics, St. Louis, Mo.).

[2] = system: rats induced with Type II diabetes; test: Type II diabetes in rats induced by sucrose feeding; plasma glucose, plasma insulin, systolic blood pressure; format: in vivo, Male Sprague-Dawley rats; settings: P-5-P 25 mg/kg orally/day; for plasma glucose levels: FIG. 3; for plasma glucose levels / plasma insulin levels: compared to diabetic group, tolbutamide 40 and 20 mg/kg, 16 weeks; for plasma insulin levels: FIG. 4
Description: To determine the effect of a compound suitable for use in methods of the invention on glucose and insulin levels, as well as increases in systolic blood pressure, rats having type II diabetes are administered pyridoxal-5'-phosphate, either alone or in combination with sucrose and/or tolbutamide, and their systolic blood pressure, urine and blood glucose and insulin levels are determined. […] et al: Isr J Med Sci; 33:153-159. […] et al: Isr J Med Sci; 33:153-159, a high sucrose or fructose diet for a prolonged period is one technique used to induce Type II diabetes, specifically hypertension associated with hyperglycemia and hyperinsulinemia in animals. Male Sprague-Dawley (Charles River Laboratories, Montreal, Canada) rats weighing approximately 200 g are randomly separated into the following groups with each group having 5 amimals: a) The control group that was fed a normal diet and provided with drinking water b) The sucrose group that was fed 35% sucrose (35 gm sucrose/100 ml of drinking water/day) with an average intake of 150 ml/rat/day c) The sucrose+[…] group that was fed sucrose as stated in b above and 25 mg/kg orally/day of […] g) The sucrose+tolbutamide group that was fed sucrose as stated in b above and 20 mg/kg orally/day of tolbutamide. Total duration of the study was 16 weeks. Plasma insulin levels were measured using Rat Insulin RIA Kit (Linco Research Inc., St. Charles, Mo.). Plasma glucose levels were done using the Infinity Glucose Reagent® (Sigma Diagnostics, St. Louis, Mo.).

| Compound | plasma glucose levels [1] | plasma insulin levels [1] | plasma glucose levels [2] | plasma insulin levels [2] | rise in systolic blood pressure ([2]; FIG. 5, tail cuff, compared to diabetic and tolbutamide treatment groups) |
| --- | --- | --- | --- | --- | --- |
| Cc1ncc(COP(=O)(O)O)c(C=O)c1O [Example P-5-P, pyridoxal-5′-phosphate] | significantly reduced | significantly increased | significantly decreased | significantly decreased | significantly decreased |
| CCCCNC(=O)NS(=O)(=O)c1ccc(C)cc1 [tolbutamide, reference compound] | – | – | significantly decreased | significantly decreased | – |
| Insulin: Humulin® N (insulin isophene, human biosynthetic; Eli Lilly and Co.) | significantly reduced | significantly increased | – | – | – |
